Results: patent US20260325533A1, “CDK INHIBITOR COMPOUNDS” (ALEKSIA THERAPEUTICS, INC., priority 2023, published 2026)
Read-outs that look alike come from different tables or passages of the source. One block for each compound: values may come before it.

What was measured:
Type in all cases: biochemical
[1] = target: CDK6/CCND1 (Homo sapiens, UniProt Q00534); assay: CDK6 homogeneous time-resolved fluorescence (HTRF) kinase assay; details: CDK6/CCND
Description: A CDK homogeneous time-resolved fluorescence (HTRF) assay was used to assess the potency of the compounds described herein.
To an untreated 384-well microtiter plate (ProxiPlate) was added 100 nL 100×test compound in DMSO and 5 μL 2×CDK enzyme in assay buffer (50 mM HEPES, 1 mM EGTA, 10 mM MgCl2, 0.01% Tween 20, 2 mM DTT). The plate was centrifuged at 800 RPM for 1 min then incubated for 20 min at 23 °C. 2.5 μL per well of 4×ATP and 2.5 μL 4×ULight™-eIF4E-binding protein 1 (Thr37/46) Peptide substrate were added to all wells. After addition, the plates were centrifuged at 800 RPM for 1 min. The plates were incubated at 23 °C for 60 min. 5 μL per well 4×EDTA solution were added to each well to stop the reaction. 5 μL 4×LANCE Ultra Europium-anti-phospho-eIF4E-binding protein 1 (Thr37/46) antibody were added to each well and the plate was centrifuged for 1 min at 800 RPM. The plate was incubated for 60 min at 23 °C. Fluorescence was read at 340 nm excitation and 665 nm emission on an EnVision 2105 fluorescence reader. The final concentrations of reagents in the activity assay were 1 nM CDK6/CCND1, 1 mM ATP, 50 nM ULight™-eIF4E-binding protein 1 (Thr37/46) Peptide substrate, 1% DMSO, 10 mM EDTA, and 2 nM LANCE Ultra Europium-anti-phospho-eIF4E-binding protein 1 (Thr37/46).
Dose-response titrations were conducted by using an 11-point, half-logarithmic serial dilution scheme typically starting at 10 μM. Signals were reported as fluorescence units at 665 nm or the ratio of fluorescence units at 665 nm/fluorescence units at 615 nm. Signals are referred to below as “Lance signals”.
Using this assay, the IC50 values of example compounds were determined. Table 3 illustrates the IC50 for various Example compounds of Formula IA. Table 4 illustrates the IC50 for various other Example compounds of Formula I. ND=not determined.

[2] = target: CDK2/CCNE1 (Homo sapiens, UniProt P24941); assay: CDK2 homogeneous time-resolved fluorescence (HTRF) kinase assay
Summary of the method: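 An HTRF format measures CDK2/CCNE1 (3 nM) phosphorylating a 4E-BP1 Thr37/46 peptide at high (1 mM) ATP. Reactions run one hour at 23 °C, then EDTA-quenched and probed with Eu-labelled phospho-specific antibody.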

[3] = target: CDK1/CCNB1 (Homo sapiens, UniProt P06493); assay: CDK1 homogeneous time-resolved fluorescence (HTRF) kinase assay
Summary of the method: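 Compounds, titrated 11 points in half-log steps typically from 10 μM, were incubated with enzyme for 20 min before ATP (1 mM) and ULight-labelled eIF4E-binding protein 1 peptide (50 nM) started a 60-min reaction at 23 °C. Phosphopeptide was detected by europium-antibody TR-FRET and IC50 values were derived.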

[4] = >250 nM marked x, read-out: CDK6/CCND IC50 >250 nM
[5] = CDK2/CCNE, 25-250 nM marked x, read-out: CDK2/CCNE IC50 25-250 nM
[6] = CDK1/CCNB, 25-250 nM marked x, read-out: CDK1/CCNB IC50 25-250 nM
[7] = CDK1/CCNB, >250 nM marked x, read-out: CDK1/CCNB IC50 >250 nM
[8] = CDK2/CCNE, <25 nM, read-out: CDK2/CCNE IC50 <25 nM
[9] = CDK2/CCNE, >250 nM marked x, read-out: CDK2/CCNE IC50 >250 nM
[10] = 3 nM CDK2/CCNE1, 1 mM ATP, read-out: CDK2/CCNE IC50 >250 nM
[11] = 0.5 nM CDK1/CCNB1, 1 mM ATP, read-out: CDK1/CCNB IC50 >250 nM
[12] = 3 nM CDK2/CCNE1, 1 mM ATP, read-out: CDK2/CCNE IC50 25-250 nM

Sequence of CDK1/CCNB1 (P06493 whole entry): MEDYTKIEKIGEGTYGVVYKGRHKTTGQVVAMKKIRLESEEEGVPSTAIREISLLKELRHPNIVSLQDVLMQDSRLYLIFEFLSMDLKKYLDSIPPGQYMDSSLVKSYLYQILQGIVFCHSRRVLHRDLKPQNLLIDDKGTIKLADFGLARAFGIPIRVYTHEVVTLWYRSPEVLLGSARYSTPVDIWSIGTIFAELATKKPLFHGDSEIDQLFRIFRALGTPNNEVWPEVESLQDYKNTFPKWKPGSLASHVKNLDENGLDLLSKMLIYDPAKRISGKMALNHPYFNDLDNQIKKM
Sequence of CDK1/CCNB1 (P14635 whole entry partner): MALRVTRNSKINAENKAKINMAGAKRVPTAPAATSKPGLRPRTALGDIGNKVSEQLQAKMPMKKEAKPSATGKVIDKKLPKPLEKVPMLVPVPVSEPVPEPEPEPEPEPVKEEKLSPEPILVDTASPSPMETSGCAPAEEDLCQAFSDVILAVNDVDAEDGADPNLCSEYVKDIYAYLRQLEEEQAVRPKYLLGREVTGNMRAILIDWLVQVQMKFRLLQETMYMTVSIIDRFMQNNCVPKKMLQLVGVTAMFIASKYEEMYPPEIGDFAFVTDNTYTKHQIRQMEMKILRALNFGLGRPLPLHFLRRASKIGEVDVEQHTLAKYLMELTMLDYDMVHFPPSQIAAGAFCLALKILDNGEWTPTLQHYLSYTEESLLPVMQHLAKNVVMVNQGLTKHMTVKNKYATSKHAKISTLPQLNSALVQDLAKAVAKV
Sequence of CDK6/CCND1 (Q00534 whole entry): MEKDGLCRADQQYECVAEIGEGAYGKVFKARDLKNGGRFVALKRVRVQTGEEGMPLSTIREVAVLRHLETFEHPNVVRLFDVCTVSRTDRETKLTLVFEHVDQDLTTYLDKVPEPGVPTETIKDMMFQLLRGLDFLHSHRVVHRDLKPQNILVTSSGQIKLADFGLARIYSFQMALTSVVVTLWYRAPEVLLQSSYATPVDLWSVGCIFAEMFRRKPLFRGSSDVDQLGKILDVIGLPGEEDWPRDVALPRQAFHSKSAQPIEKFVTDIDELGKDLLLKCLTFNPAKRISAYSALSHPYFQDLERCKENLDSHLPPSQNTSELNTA
Sequence of CDK6/CCND1 (P24385 whole entry partner): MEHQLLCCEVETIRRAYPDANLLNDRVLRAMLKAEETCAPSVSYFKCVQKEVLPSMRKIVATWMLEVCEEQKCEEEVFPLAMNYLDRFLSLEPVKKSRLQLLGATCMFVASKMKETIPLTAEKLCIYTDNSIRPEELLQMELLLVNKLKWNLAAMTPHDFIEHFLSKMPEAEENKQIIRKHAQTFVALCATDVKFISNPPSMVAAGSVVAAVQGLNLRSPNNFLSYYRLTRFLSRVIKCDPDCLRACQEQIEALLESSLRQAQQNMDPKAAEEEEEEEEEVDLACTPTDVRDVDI

SMILES: CC(C)S(=N)(=O)c1ccc(Nc2cc3c(C#Cc4ccc5c(c4)NC(=O)C5(C)CCO)nccc3cn2)cc1 (single isomer, unassigned) [Ex 287, 3-(2-hydroxyethyl)-3-methyl-6-((7-((4-(propan-2-ylsulfonimidoyl)phenyl)amino)-2,6-naphthyridin-1-yl)ethynyl)indolin-2-one]
IC50 [1, 4]: > 250 nM

SMILES: CC(C)S(=N)(=O)c1ccc(Nc2cc3c(C#Cc4ccc5c(c4)NC(=O)C5(C)O)nccc3cn2)cc1 (single isomer, unassigned) [Ex 292, 3-hydroxy-3-methyl-6-((7-((4-(propan-2-ylsulfonimidoyl)phenyl)amino)-2,6-naphthyridin-1-yl)ethynyl)indolin-2-one]
IC50 [1, 4]: > 250 nM

SMILES: CS(=N)(=O)c1ccc(Nc2cc3c(C#Cc4ccc5c(c4)NC(=O)C54CC4)nccc3cn2)cc1 (single isomer, unassigned) [Ex 359, 6'-((7-((4-(S-methylsulfonimidoyl)phenyl)amino)-2,6-naphthyridin-1-yl)ethynyl)spiro[cyclopropane-1,3'-indolin]-2'-one]
IC50 ([1]; x = IC50 25-250 nM, read-out: CDK6/CCND IC50 (25-250 nM)): 25 to 250 nM

SMILES: CC1(C#N)CCN(c2nccc3cnc(NC4CCN(S(C)(=O)=O)CC4)cc23)CC1 [Ex 212, 4-methyl-1-(7-((1-(methylsulfonyl)piperidin-4-yl)amino)-2,6-naphthyridin-1-yl)piperidine-4-carbonitrile]
IC50 [2, 5]: 25 to 250 nM
IC50 [3, 7]: > 250 nM

SMILES: N#CC1CCN(c2nccc3cnc(Nc4cccc(C(=O)ON5C(=O)CCC5=O)c4)cc23)CC1 [Ex 258, 2,5-dioxopyrrolidin-1-yl 3-((5-(4-cyanopiperidin-1-yl)-2,6-naphthyridin-3-yl)amino)benzoate]
IC50 [2, 8]: < 25 nM
IC50 ([3]; CDK1/CCNB, <25 nM, read-out: CDK1/CCNB IC50 <25 nM): < 25 nM

SMILES: Cc1cc2c(cnn2C)cc1-c1nccc2cnc(NC3CCN(S(C)(=O)=O)CC3)cc12 [Ex 262, 5-(1,6-dimethyl-1H-indazol-5-yl)-N-(1-(methylsulfonyl)piperidin-4-yl)-2,6-naphthyridin-3-amine]
IC50 [2, 8]: < 25 nM
IC50 [3, 6]: 25 to 250 nM

SMILES: Cn1cc(-c2nccc3cnc(NC4CCN(S(C)(=O)=O)CC4)cc23)cn1 [Example 4, 5-(1-methyl-1H-pyrazol-4-yl)-N-(1-(methylsulfonyl)piperidin-4-yl)-2,6-naphthyridin-3-amine]
IC50 [2, 5]: 25 to 250 nM
IC50 [3, 7]: > 250 nM

SMILES: COc1nccc2cnc(NC3CCN(S(C)(=O)=O)CC3)cc12 [Example 5, 5-methoxy-N-(1-(methylsulfonyl)piperidin-4-yl)-2,6-naphthyridin-3-amine]
IC50 [2, 5]: 25 to 250 nM
IC50 [3, 7]: > 250 nM

SMILES: CS(=O)(=O)N1CCC(Nc2cc3c(-c4ccccn4)nccc3cn2)CC1 [Example 8, N-(1-(methylsulfonyl)piperidin-4-yl)-5-(pyridin-2-yl)-2,6-naphthyridin-3-amine]
IC50 [2, 5]: 25 to 250 nM
IC50 [3, 7]: > 250 nM

SMILES: C=CS(=O)(=O)N1CCC(Nc2cc3c(N4CCCCC4)nccc3cn2)C1 (centres unmarked) [Example 9, 5-(piperidin-1-yl)-N-(1-(vinylsulfonyl)pyrrolidin-3-yl)-2,6-naphthyridin-3-amine]
IC50 [2, 9]: > 250 nM
IC50 [3, 7]: > 250 nM

SMILES: C=CS(=O)(=O)N1CCC(Nc2cc3c(N4CCC(F)(F)CC4)nccc3cn2)CC1 [Example 10, 5-(4,4-difluoropiperidin-1-yl)-N-(1-(vinylsulfonyl)piperidin-4-yl)-2,6-naphthyridin-3-amine]
IC50 [2, 5]: 25 to 250 nM
IC50 [3, 7]: > 250 nM

SMILES: CS(=O)(=O)N1CCC(Nc2cc3c(C(=O)N4CCC(O)CC4)nccc3cn2)CC1 [Example 12, (4-hydroxypiperidin-1-yl)(7-((1-(methylsulfonyl)piperidin-4-yl)amino)-2,6-naphthyridin-1-yl)methanone]
IC50 [2, 9]: > 250 nM
IC50 [3, 7]: > 250 nM

SMILES: N#CC1CCN(c2nccc3cnc(Nc4cccc(OS(=O)(=O)F)c4)cc23)CC1 [Example 13, 3-((5-(4-cyanopiperidin-1-yl)-2,6-naphthyridin-3-yl)amino)phenyl sulfurofluoridate]
IC50 [2]: > 250 nM
IC50 [3]: > 250 nM

SMILES: N#CC1CCN(c2nccc3cnc(Nc4ccc(OS(=O)(=O)F)cc4)cc23)CC1 [Example 14, 4-((5-(4-cyanopiperidin-1-yl)-2,6-naphthyridin-3-yl)amino)phenyl sulfurofluoridate]
IC50 [2]: > 250 nM
IC50 [3]: > 250 nM

SMILES: CS(=O)(=O)N1CCC(Nc2cc3c(N4CCCCC4)nc(CO)cc3cn2)CC1 [Example 17, (7-((1-(methylsulfonyl)piperidin-4-yl)amino)-1-(piperidin-1-yl)-2,6-naphthyridin-3-yl)methanol]
IC50 [2, 5]: 25 to 250 nM
IC50 [3, 7]: > 250 nM

SMILES: CS(=O)(=O)N1CCC(Nc2cc3c(N4CCCCC4)nc(CCO)cc3cn2)CC1 [Example 19, 2-(7-((1-(methylsulfonyl)piperidin-4-yl)amino)-1-(piperidin-1-yl)-2,6-naphthyridin-3-yl)ethan-1-ol]
IC50 [2, 5]: 25 to 250 nM
IC50 [3, 7]: > 250 nM

SMILES: Cc1cc2cnc(NC3CCN(S(C)(=O)=O)CC3)cc2c(N2CCCCC2)n1 [Example 25, 7-methyl-N-(1-(methylsulfonyl)piperidin-4-yl)-5-(piperidin-1-yl)-2,6-naphthyridin-3-amine]
IC50 [2, 9]: > 250 nM
IC50 [3, 7]: > 250 nM

The next lines start with the values.

IC50 [2, 5]: 25 to 250 nM
IC50 [3, 6]: 25 to 250 nM
SMILES: N#CC1CCN(c2nccc3cnc(Nc4ccc(O)c(CO)c4)cc23)CC1 [Ex 210, 1-(7-((4-hydroxy-3-(hydroxymethyl)phenyl)amino)-2,6-naphthyridin-1-yl)piperidine-4-carbonitrile]

IC50 [2, 5]: 25 to 250 nM
IC50 [3, 7]: > 250 nM
SMILES: CS(=O)(=O)c1ccc(Nc2cc3c(N4CCC(C#N)CC4)nccc3cn2)cc1 [Ex 259, 1-(7-((4-(methylsulfonyl)phenyl)amino)-2,6-naphthyridin-1-yl)piperidine-4-carbonitrile]

IC50 [2, 9]: > 250 nM
IC50 [3, 7]: > 250 nM
SMILES: N#CC1CCN(c2nccc3cnc(Nc4ccc(C(=O)NC5CCSC5=O)cc4)cc23)CC1 (centres unmarked) [Example 16, 4-((5-(4-cyanopiperidin-1-yl)-2,6-naphthyridin-3-yl)amino)-N-(2-oxotetrahydrothiophen-3-yl)benzamide]

IC50 [2, 10]: > 250 nM
IC50 [3, 11]: > 250 nM
SMILES: CS(=O)(=O)c1ccc(Nc2cc3c(C4=CCCCC4)ccnc3cn2)cc1 [Example 951, 4-(cyclohex-1-en-1-yl)-N-(4-(methylsulfonyl)phenyl)-1,7-naphthyridin-6-amine]

IC50 [2, 12]: 25 to 250 nM
IC50 [3, 11]: > 250 nM
SMILES: CS(=O)(=O)c1ccc(Nc2ncc3cccc(C4=CCCCC4)c3n2)cc1 [Example 952, 8-(cyclohex-1-en-1-yl)-N-(4-(methylsulfonyl)phenyl)quinazolin-2-amine]

IC50 [2, 10]: > 250 nM
IC50 [3, 11]: > 250 nM
SMILES: CS(=O)(=O)c1ccc(Nc2cc3c(N4CCC(C#N)CC4)ccnc3cn2)cc1 [Example 959, 1-(6-((4-(methylsulfonyl)phenyl)amino)-1,7-naphthyridin-4-yl)piperidine-4-carbonitrile]

IC50 [2, 10]: > 250 nM
IC50 [3, 11]: > 250 nM
SMILES: CS(=O)(=O)c1ccc(Nc2cc3c(N4CCC(C#N)CC4)ncnc3cn2)cc1 [Example 960, 1-(6-((4-(methylsulfonyl)phenyl)amino)pyrido [3,4-d]pyrimidin-4-yl)piperidine-4-carbonitrile]

IC50 [2, 12]: 25 to 250 nM
IC50 [3, 11]: > 250 nM
SMILES: CS(=O)(=O)c1ccc(Nc2ncc3cccc(N4CCC(C#N)CC4)c3n2)cc1 [Example 961, 1-(2-((4-(methylsulfonyl)phenyl)amino)quinazolin-8-yl) piperidine-4-carbonitrile]
